Results as given in the supplement of paper PMC10307832.

Columns and labels:
Test in all cases: relative viability (nuclei count vs DMSO), 5 days (fraction); higher = more cells survive
[1] = compound: C1=CC(=CC=C1NC(=S)NNC2=C(C=C(C=C2[N+](=O)[O-])C(F)(F)F)[N+](=O)[O-])F [Kobe2602] + Cc1cc(Nc2cc(N3CCN(C)CC3)nc(Sc3ccc(NC(=O)C4CC4)cc3)n2)n[nH]1 [Tozasertib] (partner 0.1 µM)
Outline: (§1)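 Values are medians from duplicate plates. Each reflects relative viability, defined as the nuclei count of treated wells over that of vehicle wells. Lung cancer cell lines in 1536-well plates were pin-tool dosed one day after seeding with one drug alone or with a fixed anchor-drug dose plus five library-drug doses (not always all listed) in √10 steps, then fixed, stained and imaged at 4× after 5 days.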

[2] = compound: O[C@@H](COc1cccc2ncccc12)CN1CCN([C@@H]2c3ccccc3[C@@H]3[C@H](c4ccccc42)C3(F)F)CC1 [Zosuquidar] + Cc1nc(NC(=O)N2CCC[C@H]2C(N)=O)sc1-c1ccnc(C(C)(C)C(F)(F)F)c1 [Alpelisib] (partner 2 µM)
Outline: as §1

[3] = compound: O[C@@H](COc1cccc2ncccc12)CN1CCN([C@@H]2c3ccccc3[C@@H]3[C@H](c4ccccc42)C3(F)F)CC1 [Zosuquidar] + COc1cccc2cc(-c3nc([C@H]4CC[C@H](C(=O)O)CC4)n4ncnc(N)c34)[nH]c12 [OSI-027] (partner 0.5 µM)
Outline: as §1

[4] = compound: O[C@@H](COc1cccc2ncccc12)CN1CCN([C@@H]2c3ccccc3[C@@H]3[C@H](c4ccccc42)C3(F)F)CC1 [Zosuquidar] + O=C(CCCCCCC(=O)Nc1ccccc1)NO [Vorinostat] (partner 1 µM)
Outline: as §1

UMC-11
relative viability ([1]; first compound 0.2 µM): 0.215 | relative viability ([1]; first compound 0.6325 µM): 0.219 | relative viability ([1]; first compound 2 µM): 0.189 | relative viability ([1]; first compound 6.325 µM): 0.197 | relative viability ([1]; first compound 20 µM): 0.211 | relative viability ([2]; first compound 0.01 µM): 0.877 | relative viability ([2]; first compound 0.03162 µM): 1.03 | relative viability ([2]; first compound 0.1 µM): 0.973 | relative viability ([2]; first compound 0.3162 µM): 1.02 | relative viability ([2]; first compound 1 µM): 0.961 | relative viability ([3]; first compound 0.01 µM): 0.439 | relative viability ([3]; first compound 0.03162 µM): 0.511 | relative viability ([3]; first compound 0.1 µM): 0.462 | relative viability ([3]; first compound 0.3162 µM): 0.483 | relative viability ([3]; first compound 1 µM): 0.501 | relative viability ([4]; first compound 0.01 µM): 0.381 | relative viability ([4]; first compound 0.03162 µM): 0.483 | relative viability ([4]; first compound 0.1 µM): 0.505 | relative viability ([4]; first compound 0.3162 µM): 0.432 | relative viability ([4]; first compound 1 µM): 0.387
